Source: patent US20150224190A1, “Combination of a phosphoinositide 3-kinase inhibitor and an inhibitor of the IL-8/CXCR interaction” (priority 2012, published 2015)

Assays:
pSTAT3 = pSTAT3 levels on treatment; assay type: cell-based; conditions: BEZ235 treatment
Description: Cells for Western Blotting and ELISA were lysed with RIPA buffer. Xenograft lysates were prepared by lysing kryo-homogenized tumor powder in RIPA buffer (50 mM Tris-HCl pH 8, 150 mM NaCl, 1% NP-40, 0.5% sodium deoxycholate, 0.1% SDS. RIPA was supplemented with 1× protease inhibitor cocktail (Complete Mini, Roche), 0.2 mmol/L sodium-vanadate, 20 mM sodium fluoride and 1 mmol/L phenylmethylsulfonyl fluoride. For IRS-1 immunoprecipitation, cell lysates containing 500-1000 μg of protein were incubated with 1 μg of antibody and 20-50 μl of protein A-Sepharose beads (Zymed Laboratories, Inc., South San Francisco, Calif.) overnight at 4° C. Immunoprecipitates or whole cell lysates (30-80 μg) were subjected to SDS-PAGE, transferred to PVDF membranes (Immobilon-P, Millipore) and blocked for 1 hr at room temperature with 5% milk in PBS-0.1% Tween 20. […]
(§1) The present inventors applied single doses of COMPOUND A, a dual PI3K and mTOR inhibitor, and analyzed target inhibition and potential signaling pathway crosstalks after 2, 4, 8 and 20 h hours of treatment. […] While RAD001 readily activated JAK2 starting at 4 hours of treatment, they observed a later response with BKM120 treatment starting at 8 hours after adding the compound. […]

JAK2/STAT5 = JAK2/STAT5 phosphorylation in breast cancer cell lines (pJAK2 ELISA, pSTAT5 immunoblot); assay type: cell-based, human; conditions: in vitro, after 4 hours-8 hours of treatment
Description: (§2) MDA231, lung metastatic subline MDA231 LM2 (Minn et al., 2005) and SUM159 human breast cancer cells, as well as the Balb/c tumor-derived mammary cancer lines 4T-1 and 168FARN (Aslakson and Miller, 1992), were propagated as previously described. All other cell lines were obtained from and were cultured according to the protocols of ATCC. For treatment with inhibitors, cells were synchronized without serum overnight and then supplemented with culture medium containing the inhibitor(s). For experiments with doxycycline-inducible shRNAs, 500 ng/ml of doxycycline (Sigma) was added to the medium and experiments performed 48 h later. Cell viability assays, cell cycle and cell death measurements were performed at 0.5% FCS in order to avoid masking effects of growth factors present under full-serum conditions.
Cells for Western Blotting and ELISA were lysed with RIPA buffer. Xenograft lysates were prepared by lysing kryo-homogenized tumor powder in RIPA buffer (50 mM Tris-HCl pH 8, 150 mM NaCl, 1% NP-40, 0.5% sodium deoxycholate, 0.1% SDS. RIPA was supplemented with 1× protease inhibitor cocktail (Complete Mini, Roche), 0.2 mmol/L sodium-vanadate, 20 mM sodium fluoride and 1 mmol/L phenylmethylsulfonyl fluoride. For IRS-1 immunoprecipitation, cell lysates containing 500-1000 μg of protein were incubated with 1 μg of antibody and 20-50 μl of protein A-Sepharose beads (Zymed Laboratories, Inc., South San Francisco, Calif.) overnight at 4° C. Immunoprecipitates or whole cell lysates (30-80 μg) were subjected to SDS-PAGE, transferred to PVDF membranes (Immobilon-P, Millipore) and blocked for 1 hr at room temperature with 5% milk in PBS-0.1% Tween 20. Membranes were then incubated overnight with antibodies as indicated and exposed to secondary HRP-coupled anti-mouse or -rabbit antibody at 1:5-10,000 for 1 h at room temperature. Proteins were visualized using an ECL kit (Amersham) or an enhanced chemiluminescence detection system (Pierce Biotechnology). In each of the studies presented, the results shown are typical of at least three independent experiments. The following antibodies were used: anti-JAK2 (Cell Signaling), anti-JAK1 (Cell Signaling), anti-pSTAT5 (Tyr694, Cell Signaling), anti-STAT5 (STAT5A&B, Cell Signaling), anti-STAT3 (Cell Signaling), anti-pSTAT3 (Tyr705, Cell Signaling), anti-AKT pan (Cell Signaling), anti-pAKT (Thr308 and Ser473, Cell Signaling), anti-ERK2 (Santa Cruz), anti-S6 (Cell Signaling), anti-pS6 (Ser235/236, Cell Signaling), anti-PARP (Cell Signaling), anti-MCL1 (Cell Signaling), anti-BIM (EL, L and S isoforms, Cell Signaling), anti-pIGF1R/plnsR (Invitrogen), anti-IGF1Rbeta (Cell Signaling), anti-InsRbeta (Santa Cruz), anti-IRS1 (Upstate), anti-plRS1 (Tyr612, Calbiochem).
For assessing pJAK2 levels, an ELISA assay (Tyr1007/1008, Invitrogen) was applied because of cross-reactivity of all pJAK2 antibodies tested. Interleukin-8 levels in RIPA lysates, cell culture supernatants and mouse tail vein blood plasma were measured by ELISA, as well (Biolegend). […]
as §1

pS6 = assay: Target inhibition after single doses: pS6 levels in breast cancer lines; assay type: cell-based, human; conditions: up to 20 hours after treatment, MDA 468, MDA 231 LM2 and mouse 4T-1 breast cancer lines
Description: as §2
(§3) Cells for Western Blotting and ELISA were lysed with RIPA buffer. […]
as §1

pAKT = assay: Target inhibition after single doses: pAKT levels in breast cancer lines; assay type: cell-based, human; conditions: up to 20 hours after treatment, MDA 468, MDA 231 LM2 and mouse 4T-1 breast cancer lines
Description: as §2, §3, §1

SMILES: Cn1c(=O)n(-c2ccc(C(C)(C)C#N)cc2)c2c3cc(-c4cnc5ccccc5c4)ccc3ncc21 [COMPOUND A, 2-methyl-2-[4-(3-methyl-2-oxo-8-quinolin-3-yl-2,3-dihydro-imidazo[4,5-c]quinolin-1-yl)-phenyl]-propionitrile]
- Levels of pSTAT3 (pSTAT3): largely unaffected
- pJAK2 (JAK2/STAT5): considerable upregulation
- pSTAT5 (JAK2/STAT5): considerable upregulation
- pS6 levels (pS6): completely blocked
- pAKT levels (pAKT): reduced
